From patent US11065244B2, “Methods of use of tetrahydroberberine (THB)” (DIGNITY HEALTH, priority 2010, dated 2021)

Experiments:
[1] = biological target: T1, pancreatic β-cell KATP channels (Rattus norvegicus, UniProt P70673+Q09429); assay: Inside-out patch single channel recording in rat pancreatic β-cells, ATP free solution; type: cell-based; details: bath-applied
T1 construct: Single Channel Currents of KATP Channels in Rat Pancreatic β-Cells; from tissue; host or cells: rat pancreatic β-cells

[2] = biological target: T2, Kir6.2SUR1 KATP channels (Homo sapiens, UniProt Q09428+Q14654); assay: Patch-clamp cell attached single-channel recording of transfected Kir6.2SUR1 channels in HEK-293 cells; type: cell-based
T2 construct: expressed in transfected cells; host or cells: HEK-293
Procedure: In β-cells, the dominant subtype of KATP is the Kir 6.2SUR1 subtype, as earlier described. Cells transiently transfected with the KATP Kir 6.2SUR1 channel subtype were evaluated for membrane potential and action potential firing using cell-attached recording in the presence or absence of 100 μm THB (FIG. 8A).
To further determine the effects of THB and Ipt on pancreatic β-cell-type KATP channels, the inventor examined the effects of THB or Ipt on the transfected Kir6.2SUR1 KATP channels in HEK-293 cells.

[3] = system: D2 receptor and dopamine-opened K+ channels; assay: Dopamine-induced membrane potential hyperpolarization in dissociated SNc DA neurons; type: cell-based, rat
Procedure: All experiments were performed at room temperature (22±1° C.).

[4] = biological target: T1, pancreatic β-cell KATP channels; assay: Whole-cell KATP currents induced by ramp pulses in rat pancreatic β-cells; type: cell-based; details: 100 μM bath application; external glucose 5.5 mM; ramp −90 to −50 mV
Procedure: To determine whether or not THB and Ipt can block pancreatic β-cell KATP channels, whole-cell currents induced by repetitive ramp pulses from −90 to −50 mV (at 0.2 Hz) were recorded in voltage-clamp mode (external glucose=5.5 mM).

T2 sequence (Q14654 whole entry): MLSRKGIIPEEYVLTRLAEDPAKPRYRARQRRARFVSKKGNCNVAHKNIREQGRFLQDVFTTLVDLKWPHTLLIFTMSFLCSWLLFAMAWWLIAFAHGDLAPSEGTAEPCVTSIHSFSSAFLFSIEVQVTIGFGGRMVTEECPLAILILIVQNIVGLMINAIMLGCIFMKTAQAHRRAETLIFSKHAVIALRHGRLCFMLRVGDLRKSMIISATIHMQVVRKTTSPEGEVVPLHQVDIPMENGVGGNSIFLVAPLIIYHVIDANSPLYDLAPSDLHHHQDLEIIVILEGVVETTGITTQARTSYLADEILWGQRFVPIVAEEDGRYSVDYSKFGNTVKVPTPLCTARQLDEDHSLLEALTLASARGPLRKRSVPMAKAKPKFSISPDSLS
T2 sequence (Q09428 whole entry): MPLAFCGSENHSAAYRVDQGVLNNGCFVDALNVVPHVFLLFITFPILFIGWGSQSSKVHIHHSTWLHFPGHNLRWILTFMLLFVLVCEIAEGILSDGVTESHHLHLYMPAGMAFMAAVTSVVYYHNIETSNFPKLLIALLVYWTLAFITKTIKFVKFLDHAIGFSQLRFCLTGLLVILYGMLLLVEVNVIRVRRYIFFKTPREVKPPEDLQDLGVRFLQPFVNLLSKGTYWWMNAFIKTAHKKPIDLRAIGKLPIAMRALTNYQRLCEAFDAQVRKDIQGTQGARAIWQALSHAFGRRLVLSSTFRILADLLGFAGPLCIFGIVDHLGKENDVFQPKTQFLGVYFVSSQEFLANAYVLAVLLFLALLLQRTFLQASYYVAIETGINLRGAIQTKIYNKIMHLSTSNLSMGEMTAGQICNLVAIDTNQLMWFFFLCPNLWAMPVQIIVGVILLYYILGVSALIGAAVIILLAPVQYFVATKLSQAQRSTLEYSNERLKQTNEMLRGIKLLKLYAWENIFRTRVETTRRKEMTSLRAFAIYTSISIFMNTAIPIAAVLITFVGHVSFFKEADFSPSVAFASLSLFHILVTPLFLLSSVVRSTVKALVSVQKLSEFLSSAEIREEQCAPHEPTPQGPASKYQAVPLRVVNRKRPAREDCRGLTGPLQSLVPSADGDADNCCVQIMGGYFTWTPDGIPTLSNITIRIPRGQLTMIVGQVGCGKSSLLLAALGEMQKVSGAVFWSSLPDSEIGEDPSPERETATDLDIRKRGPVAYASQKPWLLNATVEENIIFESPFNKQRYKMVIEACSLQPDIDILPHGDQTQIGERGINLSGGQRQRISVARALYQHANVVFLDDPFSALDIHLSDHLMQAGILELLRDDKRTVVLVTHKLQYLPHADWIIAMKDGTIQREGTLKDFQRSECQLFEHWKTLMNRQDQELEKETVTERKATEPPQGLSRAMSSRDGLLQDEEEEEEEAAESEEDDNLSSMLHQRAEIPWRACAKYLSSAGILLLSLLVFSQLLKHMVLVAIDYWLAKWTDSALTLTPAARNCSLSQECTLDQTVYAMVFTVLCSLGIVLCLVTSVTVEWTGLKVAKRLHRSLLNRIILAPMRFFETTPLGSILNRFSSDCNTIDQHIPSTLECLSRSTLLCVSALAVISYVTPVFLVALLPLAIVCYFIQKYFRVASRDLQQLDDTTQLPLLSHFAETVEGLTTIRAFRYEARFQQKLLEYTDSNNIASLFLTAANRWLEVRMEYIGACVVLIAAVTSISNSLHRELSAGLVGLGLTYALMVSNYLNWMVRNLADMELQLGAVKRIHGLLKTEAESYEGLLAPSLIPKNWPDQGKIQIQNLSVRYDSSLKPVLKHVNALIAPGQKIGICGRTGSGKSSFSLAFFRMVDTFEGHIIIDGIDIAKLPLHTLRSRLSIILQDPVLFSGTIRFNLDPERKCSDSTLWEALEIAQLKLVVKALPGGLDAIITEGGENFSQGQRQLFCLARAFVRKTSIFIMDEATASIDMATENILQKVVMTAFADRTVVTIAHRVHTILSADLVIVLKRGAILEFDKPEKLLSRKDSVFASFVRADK
T1 sequence (P70673 whole entry): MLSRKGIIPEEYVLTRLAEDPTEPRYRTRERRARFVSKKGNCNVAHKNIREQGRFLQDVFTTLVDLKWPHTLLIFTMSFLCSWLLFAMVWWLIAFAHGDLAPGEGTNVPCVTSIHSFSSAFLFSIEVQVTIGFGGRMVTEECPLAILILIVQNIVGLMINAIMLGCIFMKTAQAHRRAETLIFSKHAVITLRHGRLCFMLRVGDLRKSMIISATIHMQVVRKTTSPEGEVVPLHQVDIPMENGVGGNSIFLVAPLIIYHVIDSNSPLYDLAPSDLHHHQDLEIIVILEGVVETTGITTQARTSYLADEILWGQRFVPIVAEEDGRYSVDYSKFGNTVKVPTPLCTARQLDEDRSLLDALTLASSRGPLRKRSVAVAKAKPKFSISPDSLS
T1 sequence (Q09429 whole entry): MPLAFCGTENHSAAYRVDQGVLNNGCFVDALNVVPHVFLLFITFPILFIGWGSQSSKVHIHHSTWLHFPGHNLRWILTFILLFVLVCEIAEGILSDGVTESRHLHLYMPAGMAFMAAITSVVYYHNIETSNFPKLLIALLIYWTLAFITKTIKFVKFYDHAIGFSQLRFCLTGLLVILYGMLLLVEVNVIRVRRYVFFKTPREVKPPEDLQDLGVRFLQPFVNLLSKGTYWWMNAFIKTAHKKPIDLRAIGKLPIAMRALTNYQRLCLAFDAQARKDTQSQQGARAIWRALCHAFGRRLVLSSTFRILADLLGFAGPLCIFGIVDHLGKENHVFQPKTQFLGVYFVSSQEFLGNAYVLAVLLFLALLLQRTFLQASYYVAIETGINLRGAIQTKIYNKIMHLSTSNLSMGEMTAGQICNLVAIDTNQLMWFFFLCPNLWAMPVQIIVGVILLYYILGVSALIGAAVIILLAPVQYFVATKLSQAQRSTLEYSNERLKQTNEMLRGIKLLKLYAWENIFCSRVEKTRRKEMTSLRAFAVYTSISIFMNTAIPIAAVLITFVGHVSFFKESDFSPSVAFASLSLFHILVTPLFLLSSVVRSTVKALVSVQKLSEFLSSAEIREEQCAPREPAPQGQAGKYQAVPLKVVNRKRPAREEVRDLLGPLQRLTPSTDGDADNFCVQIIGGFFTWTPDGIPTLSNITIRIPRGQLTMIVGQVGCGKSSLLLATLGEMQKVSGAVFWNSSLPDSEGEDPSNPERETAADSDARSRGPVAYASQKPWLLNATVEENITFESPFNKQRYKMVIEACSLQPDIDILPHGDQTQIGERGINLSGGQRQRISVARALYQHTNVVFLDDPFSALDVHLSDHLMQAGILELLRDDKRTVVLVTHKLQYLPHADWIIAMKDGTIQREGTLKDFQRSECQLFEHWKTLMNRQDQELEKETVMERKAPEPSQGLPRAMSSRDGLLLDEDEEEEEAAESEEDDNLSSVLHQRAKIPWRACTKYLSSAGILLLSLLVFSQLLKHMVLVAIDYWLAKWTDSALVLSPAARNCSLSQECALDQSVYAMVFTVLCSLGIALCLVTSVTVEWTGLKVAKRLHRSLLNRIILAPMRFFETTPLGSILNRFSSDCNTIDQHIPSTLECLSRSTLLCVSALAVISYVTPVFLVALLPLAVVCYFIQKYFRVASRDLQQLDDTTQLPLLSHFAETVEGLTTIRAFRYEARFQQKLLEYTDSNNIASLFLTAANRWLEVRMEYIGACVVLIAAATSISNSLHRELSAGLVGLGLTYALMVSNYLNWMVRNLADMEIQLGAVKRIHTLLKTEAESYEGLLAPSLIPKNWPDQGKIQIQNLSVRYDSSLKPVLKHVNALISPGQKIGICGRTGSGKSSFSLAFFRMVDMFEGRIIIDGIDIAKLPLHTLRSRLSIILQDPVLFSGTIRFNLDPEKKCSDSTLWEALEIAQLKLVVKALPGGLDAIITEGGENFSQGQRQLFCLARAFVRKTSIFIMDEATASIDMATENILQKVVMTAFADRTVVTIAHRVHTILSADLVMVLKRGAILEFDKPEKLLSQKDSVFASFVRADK

COc1ccc2c(c1OC)CN1CCc3cc4c(cc3C1C2)OCO4 (stereo not drawn) [THB, tetrahydroberberine]
effect on single channel activities opened by ATP free solution [1]: inhibited these single channel activities
normalized NPo value ([2]; 100 μM, control as 1, THB 6 patches, Ipt 8 patches): 0.51±0.05
change in channel activity NP0 compared to control ([2]; 100 μm THB, three experiments, FIG. 8B): 50%
membrane potential after co-application of dopamine with substance ([3]; 100 μM THB (from −45.6±1.0, n=7), tolbutamide (from −45.3±2.3, n=4)): −38.6±1.2 mV
altered membrane potential on co-application with dopamine ([3]; difference THB vs tolbutamide p>0.05): 7.0±0.9 mV
effect on β-cell KATP channel-mediated whole-cell currents [4]: reduced these β-cell KATP channel-mediated currents
